Measured values: patent US10066272B2, “Human homeobox gene ventx and macrophage terminal differentiation and activation, compositions and methods thereof” (priority 2011, dated 2018)

Tests used:
Type in all cases: cell-based, human
primary monocytes = assay: Monocyte to macrophage differentiation after siRNA transfection, surface markers by FACS
Protocol: (A) knockdown of VentX expression in primary monocytes by RNA interference. Monocytes were transfected with siRNA against GFP or VentX through electroporation. VentX mRNA levels were determined by real time PCR at 3 days after transfection (left); VentX protein level was determined by western blotting at 4 days after transfection (right). (B) Effects of VentX knockdown on macrophage morphogenesis during M-CSF induced differentiation. Monocytes were transfected with either siGFP or siVentX and subsequently exposed to 100 ng/mL M-CSF. […] Magnification of photographs, ×200. Note: a portion of cells lost their original morphology during Wright-Giemsa staining procedure. (C) Effects of VentX knockdown on macrophage surface expression of CD71. […] Filled blue histogram represents the isotope control staining; red histogram represents monocytes transfected with siGFP; green histogram represents monocytes transfected with siVentX. (D) Bar graphs show mean+SD of 6 different experiments in (C). Paired t test was used to reveal the statistical significance. **p<0.01.
(§1) (A) Left panel: Flow cytometry analysis of indicated surface markers in monocytes transfected with siGFP or siVentX, respectively; right panel: bar graphs show the mean+SD of at least three separate experiments. *p<0.05; **p<0.01. (B) Effects of VentX knockdown on macrophage viability. Monocytes were transfected with either siGFP or siVentX and subsequently exposed to 100 ng/mL M-CSF for 3 days. Cells were then harvested and stained with PI and Annexin V and analyzed by flow cytometry. (C) Effects of VentX knockdown on phagocytosis. Monocytes were transfected with siGFP or siVentX. Phagocytosis assays were carried out as described in materials and methods. […]
Surface expression of CD71 was determined by FACS analysis at 4 days after siRNA transfection. […]
Peripheral blood mononuclear cells (PBMC) from healthy adult donors at Children's Hospital Boston were isolated by Ficoll density gradient centrifugation. […] The purity of freshly isolated CD14^+ monocytes was more than 95% as analyzed by flow cytometry. […]

[1] = tested on: cultured monocytes/macrophages; assay: Phagocytosis assay with pHrodo S. aureus BioParticles
Protocol: as §1
Macrophages were generated through incubation of freshly isolated monocytes with 100 ng/mL M-CSF for 4 days. […] (A) Surface staining of CD40, CD80, CD86 and HLA-DR and intracellular staining of TNF-α and IL1-β were analyzed by flow cytometry. (B) Secreted TNF-α, IL1-β and IL12p70 from culture supernatants were determined with ELISA kits. (C) Reactive oxygen species (ROS) from siGFP or siVentX transfected macrophages were analyzed with fluorescence microscope (left) and flow cytometry (middle). […]
Phagocytosis of cultured monocytes/macrophages or U937 cells were performed with pHrodo™ S. aureus BioParticles® conjugates from Invitrogen. […] After extensive washings, cellular phagocytosis of bioparticles was monitored by flow cytometry. […]

macrophages = assay: Secreted pro-inflammatory cytokines from macrophage culture supernatants (ELISA); details: transfected macrophages, TNF-α, IL1-β and IL12p70 by ELISA (FIG. 8B)
Protocol: (§2) Macrophages were generated through incubation of freshly isolated monocytes with 100 ng/mL M-CSF for 4 days. These macrophages were then transfected with siGFP or siVentX, respectively, and further cultured in RPMI 1640 medium for additional 3 days. Thereafter, cells were exposed to 1 μg/mL LPS plus 20 ng/mL γ-IFN for 6 hours. (A) Surface staining of CD40, CD80, CD86 and HLA-DR and intracellular staining of TNF-α and IL1-β were analyzed by flow cytometry. (B) Secreted TNF-α, IL1-β and IL12p70 from culture supernatants were determined with ELISA kits. (C) Reactive oxygen species (ROS) from siGFP or siVentX transfected macrophages were analyzed with fluorescence microscope (left) and flow cytometry (middle). […] (D) Nitrate level from siGFP and siVentX transfected macrophages. Data represent mean+SD of three different experiments. (E) Phagocytosis of siGFP and siVentX transfected macrophage. Red histogram represents transfection with siGFP; green histogram represents transfection with siVentX. Left panel: cells were incubated on ice; right panel: cells were incubated at 37° C. (F) Effects of VentX knockdown on mixed lymphocyte reaction. […]
Levels of IL-1β and TNF-α and IL12p70 in the supernatants of E. coli LPS (Sigma) and IFN-γ (PeproTech) treated macrophage or LPS treated U937 cells were quantified using ELISA kits obtained from eBiosciences. […]

activated macrophages = assay: Detection of reactive oxygen species (ROS) and nitric oxide (NO) in activated macrophages
Protocol: as §2, with “macrophage.” for “macrophage. Red histogram represents transfection with siGFP; green histogram represents transfection with siVentX. Left panel: cells were incubated on ice; right panel: cells were incubated at 37° C. (F) Effects of VentX knockdown on mixed lymphocyte reaction.”
The ROS level in activated macrophages was detected with Image-iT® LIVE Green Reactive Oxygen Species Detection Kit (Invitrogen) basically following the manufacturer's instructions except that the results were analyzed by both fluorescence microscope and flow cytometry. The NO level was determined by Griess Reagent Kit for Nitrite Determination (Invitrogen) following the protocol provided by the manufacturer.

Substance: siVentX: VentX siRNA, forward 5′-UUCAGAAUCGCCGCAUGAAACACAAACGG-3′ (SEQ ID NO:4), reverse SEQ ID NO:5 (antisense CCGUUUGUGUUUCAUGCGGCGAUUCUGAA; listed as RNA, chemistry not given here)
- macrophage differentiation by GM-CSF or IL3 (primary monocytes; monocytes, 100 ng/mL GM-CSF or IL3, CD71 at 4 days (FIG. 15)): blocked macrophage differentiation
- expression of macrophage phenotypic markers CD64, CD40, CD86, CD11b and CD11c (primary monocytes; transfected monocytes, M-CSF, compared with siGFP transfected control cells (FIG. 3A)): significantly down-regulated
- phagocytotic capability of transfected macrophages ([1]; macrophages (FIG. 8E)): much weaker
- phagocytotic activity of transfected monocytes ([1]; monocytes, in comparison with the control (FIG. 3C)): reduced phagocytotic activity
- pro-inflammatory cytokine secretion (macrophages): significant reduction
- reactive oxygen species produced (activated macrophages; transfected macrophages (FIG. 8C)): significantly less
- nitric oxide produced (activated macrophages; transfected macrophages (FIG. 8D)): significantly less
